Measurements from US9169254B2, “Spiroimidazolone derivative” (Chugai Seiyaku Kabushiki Kaisha, priority 2009, dated 2015).

What follows are molecules tested against T1, human PTH1 receptor (Homo sapiens, UniProt Q03431) (assay: In vitro cAMP signal activity in HKRK-B7 cells (LLC-PK1 cells overexpressing the human PTH1 receptor)). Conditions: HKRK-B7 cells; compound at 1×10^−3 M; cAMP produced as percentage of that produced by hPTH(1-34) at 100 nM.
T1 sequence (Q03431 27-593): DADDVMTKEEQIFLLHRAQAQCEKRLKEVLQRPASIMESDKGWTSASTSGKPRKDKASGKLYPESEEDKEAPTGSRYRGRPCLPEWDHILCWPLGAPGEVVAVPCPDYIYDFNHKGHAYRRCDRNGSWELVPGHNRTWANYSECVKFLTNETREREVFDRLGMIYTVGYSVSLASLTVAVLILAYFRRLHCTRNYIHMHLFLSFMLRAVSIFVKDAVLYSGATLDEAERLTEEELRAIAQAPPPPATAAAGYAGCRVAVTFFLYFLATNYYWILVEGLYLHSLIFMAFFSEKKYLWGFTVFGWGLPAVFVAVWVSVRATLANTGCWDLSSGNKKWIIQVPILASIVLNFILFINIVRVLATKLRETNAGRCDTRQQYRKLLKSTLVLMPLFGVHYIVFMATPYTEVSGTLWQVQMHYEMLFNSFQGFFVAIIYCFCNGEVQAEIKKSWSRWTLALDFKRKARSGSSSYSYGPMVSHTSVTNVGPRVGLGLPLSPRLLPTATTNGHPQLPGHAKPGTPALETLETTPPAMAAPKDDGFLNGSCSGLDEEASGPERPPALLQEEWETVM
Type: cell-based
In the case of `CN(CCO)c1ccc(/C=C/S(=O)(=O)N2CCC3(CC2)N=C(C2CCCCC2)NC3=O)c(C(F)(F)F)c1` [Compound 501, 2-cyclohexyl-8-((E)-2-{4-[(2-hydroxy-ethyl)-methyl-amino]-2-trifluoromethyl-phenyl}-ethenesulfonyl)-1,3,8-triaza-spiro[4.5]dec-1-en-4-one], the “cAMP production activity (%)” value is reported as 59%.
For `Cc1cc(C(=O)N2CCS(=O)(=O)CC2)ccc1/C=C/S(=O)(=O)N1CCC2(CC1)N=C(C1CCCCC1)NC2=O` [Compound 502, 2-cyclohexyl-8-{(E)-2-[4-(1,1-dioxo-1λ^6-thiomorpholine-4-carbonyl)-2-methyl-phenyl]-ethenesulfonyl}-1,3,8-triaza-spiro[4.5]dec-1-en-4-one], the “cAMP production activity (%)” value was 14%.
`Cc1cc(S(=O)(=O)NCCN(C)C)ccc1/C=C/S(=O)(=O)N1CCC2(CC1)N=C(C1CCCCC1)NC2=O` [Compound 503, 4-[(E)-2-(2-cyclohexyl-4-oxo-1,3,8-triaza-spiro[4.5]dec-1-ene-8-sulfonyl)-vinyl]-N-(2-dimethylamino-ethyl)-3-methyl-benzenesulfonamide] was tested, and the “cAMP production activity (%)” value was 67%.
For `Cc1cc(N2C(=O)CNC2=O)ccc1/C=C/S(=O)(=O)N1CCC2(CC1)N=C(C1CCC(C)CC1)NC2=O` (stereo not shown) [Compound 504, 3-(3-methyl-4-{(E)-2-[2-(4-methyl-cyclohexyl)-4-oxo-1,3,8-triaza-spiro[4.5]dec-1-ene-8-sulfonyl]-vinyl}-phenyl)-imidazolidine-2,4-dione], the “cAMP production activity (%)” value was 60%.
For `Cc1cc(N2C(=O)CN(C)C2=O)ccc1/C=C/S(=O)(=O)N1CCC2(CC1)N=C(C1CCC(C)CC1)NC2=O` (stereo not shown) [Compound 505, 1-methyl-3-(3-methyl-4-{(E)-2-[2-(4-methyl-cyclohexyl)-4-oxo-1,3,8-triaza-spiro[4.5]dec-1-ene-8-sulfonyl]-vinyl}-phenyl)-imidazolidine-2,4-dione], the “cAMP production activity (%)” value was 61%.
With `CC(=O)Nc1ccc(/C=C/S(=O)(=O)N2CCC3(CC2)N=C(C2CCC(C)CC2)NC3=O)c(OC(C)C)c1` (stereo not shown) [Compound 506, N-(3-isopropoxy-4-{(E)-2-[2-(4-methyl-cyclohexyl)-4-oxo-1,3,8-triaza-spiro[4.5]dec-1-ene-8-sulfonyl]-vinyl}-phenyl)-acetamide] the “cAMP production activity (%)” value was 83%.
In the case of `Cc1cc(N2C(=O)NC(C)(C)C2=O)cc(C)c1/C=C/S(=O)(=O)N1CCC2(CC1)N=C(C1CCC(C)CC1)NC2=O` (stereo not shown) [Compound 507, 3-(3,5-dimethyl-4-{(E)-2-[2-(4-methyl-cyclohexyl)-4-oxo-1,3,8-triaza-spiro[4.5]dec-1-ene-8-sulfonyl]-vinyl}-phenyl)-5,5-dimethyl-imidazolidine-2,4-dione], the “cAMP production activity (%)” value is reported as 43%.
With `Cc1cc(N2C(=O)N(C)C(C)(C)C2=O)cc(C)c1/C=C/S(=O)(=O)N1CCC2(CC1)N=C(C1CCC(C)CC1)NC2=O` (stereo not shown) [Compound 508, 3-(3,5-dimethyl-4-{(E)-2-[2-(4-methyl-cyclohexyl)-4-oxo-1,3,8-triaza-spiro[4.5]dec-1-ene-8-sulfonyl]-vinyl}-phenyl)-1,5,5-trimethyl-imidazolidine-2,4-dione] the “cAMP production activity (%)” value was 24%.
`CCOc1cc(NC(C)=O)ccc1/C=C/S(=O)(=O)N1CCC2(CC1)N=C(C1CCC(C)CC1)NC2=O` (stereo not shown) [Compound 509, N-(3-ethoxy-4-{(E)-2-[2-(4-methyl-cyclohexyl)-4-oxo-1,3,8-triaza-spiro[4.5]dec-1-ene-8-sulfonyl]-vinyl}-phenyl)-acetamide] was tested, and the “cAMP production activity (%)” value was 70%.
For `CCc1cc(NC(C)=O)ccc1/C=C/S(=O)(=O)N1CCC2(CC1)N=C(C1CCC(C)CC1)NC2=O` (stereo not shown) [Compound 510, N-(3-ethyl-4-{(E)-2-[2-(4-methyl-cyclohexyl)-4-oxo-1,3,8-triaza-spiro[4.5]dec-1-ene-8-sulfonyl]-vinyl}-phenyl)-acetamide], the “cAMP production activity (%)” value was 57%.
